# Reference: patent US20080161289A1, “Fused Thiazole Derivatives Having Affinity for the Histamine H3 Receptor” (Glaxo Group Limited, priority 2005, published 2008)
# Target: T1, histamine H3 receptors (Homo sapiens, UniProt Q9Y5N1)
# T1 construct: expressed in transfected cells; host or cells: CHO K1 cells carrying pSwitch, transfected with pGeneH3, induced with mifepristone; clone 3H3; membrane preparation
# Assay: Histamine H3 functional antagonist assay ([35S]-GTPγS SPA on membranes from H3 cells)
# Assay type: biochemical
# Settings: hydrochloride salts tested; H3 functional antagonist assay using membrane prepared from cultured H3 cells; averages of a number of experiments; read-out: functional pKi (fpKi) (converted)
# Excerpt: A membrane preparation containing histamine H3 receptors may be prepared in accordance with the following procedures:
# (i) Generation of Histamine H3 Cell Line
# DNA encoding the human histamine H3 gene (Huvar, A. et al. (1999) Mol. Pharmacol. 55(6), 1101-1107) was cloned into a holding vector, pCDNA3.1 TOPO (InVitrogen) and its cDNA was isolated from this vector by restriction digestion of plasmid DNA with the enzymes BamHI and Not-1 and ligated into the inducible expression vector pGene (InVitrogen) digested with the same enzymes. The GeneSwitch™ system (a system where in transgene expression is switched off in the absence of an inducer and switched on in the presence of an inducer) was performed as described in U.S. Pat. Nos. 5,364,791; 5,874,534; and 5,935,934. Ligated DNA was transformed into competent DH5α E. coli host bacterial cells and plated onto Luria Broth (LB) agar containing Zeocin™ (an antibiotic which allows the selection of cells expressing the sh ble gene which is present on pGene and pSwitch) at 50 μg ml^−1. Colonies containing the re-ligated plasmid were identified by restriction analysis. DNA for transfection into mammalian cells was prepared from 250 ml cultures of the host bacterium containing the pGeneH3 plasmid and isolated using a DNA preparation kit (Qiagen Midi-Prep) as per manufacturers guidelines (Qiagen).
# CHO K1 cells previously transfected with the pSwitch regulatory plasmid (InVitrogen) were seeded at 2×10e6 cells per T75 flask in Complete Medium, containing Hams F12 (GIBCOBRL, Life Technologies) medium supplemented with 10% v/v dialysed foetal bovine serum, L-glutamine, and hygromycin (100 μg ml^−1), 24 hours prior to use. Plasmid DNA was transfected into the cells using Lipofectamine plus according to the manufacturers guidelines (InVitrogen). 48 hours post transfection cells were placed into complete medium supplemented with 500 μg ml^−1 Zeocin™.
# 10-14 days post selection 10 nM Mifepristone (InVitrogen), was added to the culture medium to induce the expression of the receptor. 18 hours post induction cells were detached from the flask using ethylenediamine tetra-acetic acid (EDTA; 1:5000; InVitrogen), following several washes with phosphate buffered saline pH 7.4 and resuspended in Sorting Medium containing Minimum Essential Medium (MEM), without phenol red, and supplemented with Earles salts and 3% Foetal Clone II (Hyclone). Approximately 1×10e7 cells were examined for receptor expression by staining with a rabbit polyclonal antibody, 4a, raised against the N-terminal domain of the histamine H3 receptor, incubated on ice for 60 minutes, followed by two washes in sorting medium. Receptor bound antibody was detected by incubation of the cells for 60 minutes on ice with a goat anti rabbit antibody, conjugated with Alexa 488 fluorescence marker (Molecular Probes). Following two further washes with Sorting Medium, cells were filtered through a 50 μm Filcon™ (BD Biosciences) and then analysed on a FACS Vantage SE Flow Cytometer fitted with an Automatic Cell Deposition Unit. Control cells were non-induced cells treated in a similar manner. Positively stained cells were sorted as single cells into 96-well plates, containing Complete Medium containing 500 μg ml^−1 Zeocin™ and allowed to expand before reanalysis for receptor expression via antibody and ligand binding studies. One clone, 3H3, was selected for membrane preparation.
# (ii) Membrane Preparation from Cultured Cells
# All steps of the protocol are carried out at 4° C. and with pre-cooled reagents. The cell pellet is resuspended in 10 volumes of homogenisation buffer (50 mM N-2-hydroxyethylpiperazine-N′-2-ethanesulfonic acid (HEPES), 1 mM ethylenediamine tetra-acetic acid (EDTA), pH 7.4 with KOH, supplemented with 10e-6M leupeptin (acetyl-leucyl-leucyl-arginal; Sigma L2884), 25 μg/ml bacitracin (Sigma B0125), 1 mM phenylmethylsulfonyl fluoride (PMSF) and 2×10e-6M pepstain A (Sigma)). […]
# T1 sequence (Q9Y5N1 whole entry): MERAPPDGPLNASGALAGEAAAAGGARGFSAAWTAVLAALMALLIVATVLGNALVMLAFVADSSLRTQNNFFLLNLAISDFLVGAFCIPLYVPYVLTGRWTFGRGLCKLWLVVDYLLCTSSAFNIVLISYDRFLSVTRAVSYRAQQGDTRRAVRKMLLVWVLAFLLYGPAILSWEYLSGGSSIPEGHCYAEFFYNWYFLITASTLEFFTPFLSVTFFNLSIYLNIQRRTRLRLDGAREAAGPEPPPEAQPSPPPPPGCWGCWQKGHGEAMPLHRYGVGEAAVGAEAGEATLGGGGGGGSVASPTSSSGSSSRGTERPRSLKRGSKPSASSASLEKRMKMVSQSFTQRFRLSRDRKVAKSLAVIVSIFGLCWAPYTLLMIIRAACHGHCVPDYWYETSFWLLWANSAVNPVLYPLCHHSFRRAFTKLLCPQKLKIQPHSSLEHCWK
row,Structure (SMILES),Ki [nM]
1,"N#Cc1ccc(N2CCC(c3nc4c(s3)CCN(C3CCC3)CC4)C2)cn1 (racemic) [Example E35, (±)-5-[3-(6-Cyclobutyl-5,6,7,8-tetrahydro-4H-[1,3]thiazolo[4,5-d]azepin-2-yl)-1-pyrrolidinyl]-2-pyridinecarbonitrile]",< 1.26
2,"Cc1ccc(N2CCC(c3nc4c(s3)CCN(C3CCC3)CC4)C2)cn1 (racemic) [Example E38, (±)-6-Cyclobutyl-2-[1-(6-methyl-3-pyridinyl)-3-pyrrolidinyl]-5,6,7,8-tetrahydro-4H-[1,3]thiazolo[4,5-d]azepine]",< 1.26
3,"Cc1cccc(N2CCC(c3nc4c(s3)CCN(C3CCC3)CC4)C2)n1 (racemic) [Example E114, (±)-6-Cyclobutyl-2-[1-(6-methyl-2-pyridinyl)-3-pyrrolidinyl]-5,6,7,8-tetrahydro-4H-[1,3]thiazolo[4,5-d]azepine]",< 0.316
4,"N#Cc1ccc(N2CCC(c3nc4c(s3)CCN(C3CCC3)CC4)C2)cn1 (single isomer, unassigned; (+)) [Example E37, (+)-5-[3-(6-Cyclobutyl-5,6,7,8-tetrahydro-4H-[1,3]thiazolo[4,5-d]azepin-2-yl)-1-pyrrolidinyl]-2-pyridinecarbonitrile]",< 1.26
5,"N#Cc1ccc(N2CCC(c3nc4c(s3)CCN(C3CCC3)CC4)C2)cn1 (single isomer, unassigned; (-)) [Example E36, (−)-5-[3-(6-Cyclobutyl-5,6,7,8-tetrahydro-4H-[1,3]thiazolo[4,5-d]azepin-2-yl)-1-pyrrolidinyl]-2-pyridinecarbonitrile]",< 0.316
6,"FC(F)(F)c1ccc(-c2nc3c(s2)CCN(C2CCC2)CC3)cc1 [Example E1, 6-Cyclobutyl-2-[4-(trifluoromethyl)phenyl]-5,6,7,8-tetrahydro-4H-[1,3]thiazolo[4,5-d]azepine]",< 31.6
7,"O=C1CCCN1c1ccc(-c2nc3c(s2)CCN(C2CCC2)CC3)cc1 [Example E3, 1-[4-(6-cyclobutyl-5,6,7,8-tetrahydro-4H-[1,3]thiazolo[4,5-d]azepin-2-yl)phenyl]-2-pyrrolidinone]",< 0.316
8,"c1cc(-c2nc3c(s2)CCN(C2CCC2)CC3)ccc1-c1csnn1 [Example E5, 6-Cyclobutyl-2-[4-(1,2,3-thiadiazol-4-yl)phenyl]-5,6,7,8-tetrahydro-4H-[1,3]thiazolo[4,5-d]azepine]",< 1.26
9,"Cc1ccc(C(=O)N2CCC(c3nc4c(s3)CCN(C3CCC3)CC4)CC2)cn1 [Example E8, 6-Cyclobutyl-2-{1-[(6-methyl-3-pyridinyl)carbonyl]-4-piperidinyl}-5,6,7,8-tetrahydro-4H-[1,3]thiazolo[4,5-d]azepine]",< 1.26
10,"O=C(c1ccc(C(F)(F)F)nc1)N1CCC(c2nc3c(s2)CCN(C2CCC2)CC3)CC1 [Example E10, 6-Cyclobutyl-2-(1-{[6-(trifluoromethyl)-3-pyridinyl]carbonyl}-4-piperidinyl)-5,6,7,8-tetrahydro-4H-[1,3]thiazolo[4,5-d]azepine]",< 31.6
11,"Cc1cccc(C(=O)N2CCC(c3nc4c(s3)CCN(C3CCC3)CC4)CC2)n1 [Example E11, 6-Cyclobutyl-2-{1-[(6-methyl-2-pyridinyl)carbonyl]-4-piperidinyl}-5,6,7,8-tetrahydro-4H-[1,3]thiazolo[4,5-d]azepine]",< 0.316
12,"Cc1cnc(C(=O)N2CCC(c3nc4c(s3)CCN(C3CCC3)CC4)CC2)cn1 [Example E12, 6-Cyclobutyl-2-{1-[(5-methyl-2-pyrazinyl)carbonyl]-4-piperidinyl}-5,6,7,8-tetrahydro-4H-[1,3]thiazolo[4,5-d]azepine]",< 1.26
13,"Cc1cncc(C(=O)N2CCC(c3nc4c(s3)CCN(C3CCC3)CC4)CC2)c1 [Example E13, 6-Cyclobutyl-2-{1-[(5-methyl-3-pyridinyl)carbonyl]-4-piperidinyl}-5,6,7,8-tetrahydro-4H-[1,3]thiazolo[4,5-d]azepine]",< 0.316
14,"Cc1ccc(C(=O)N2CCC(c3nc4c(s3)CCN(C3CCC3)CC4)CC2)cc1 [Example E14, 6-Cyclobutyl-2-{1-[(4-methylphenyl)carbonyl]-4-piperidinyl}-5,6,7,8-tetrahydro-4H-[1,3]thiazolo[4,5-d]azepine]",< 1.26
15,"Cc1cc(C(=O)N2CCC(c3nc4c(s3)CCN(C3CCC3)CC4)CC2)no1 [Example E15, 6-Cyclobutyl-2-{1-[(5-methyl-3-isoxazolyl)carbonyl]-4-piperidinyl}-5,6,7,8-tetrahydro-4H-[1,3]thiazolo[4,5-d]azepine]",< 1.26
16,"O=C(c1csnn1)N1CCC(c2nc3c(s2)CCN(C2CCC2)CC3)CC1 [Example E16, 6-Cyclobutyl-2-[1-(1,2,3-thiadiazol-4-ylcarbonyl)-4-piperidinyl]-5,6,7,8-tetrahydro-4H-[1,3]thiazolo[4,5-d]azepine]",< 1.26
17,"Cn1ccc(C(=O)N2CCC(c3nc4c(s3)CCN(C3CCC3)CC4)CC2)n1 [Example E17, 6-Cyclobutyl-2-{1-[(1-methyl-1H-pyrazol-3-yl)carbonyl]-4-piperidinyl}-5,6,7,8-tetrahydro-4H-[1,3]thiazolo[4,5-d]azepine]",< 1.26
18,"Cc1cc(C(=O)N2CCC(c3nc4c(s3)CCN(C3CCC3)CC4)CC2)on1 [Example E18, 6-Cyclobutyl-2-{1-[(3-methyl-5-isoxazolyl)carbonyl]-4-piperidinyl}-5,6,7,8-tetrahydro-4H-[1,3]thiazolo[4,5-d]azepine]",< 1.26
19,"Cc1ccc(N2CCC(c3nc4c(s3)CCN(C3CCC3)CC4)CC2)cn1 [Example E19, 6-Cyclobutyl-2-[1-(6-methyl-3-pyridinyl)-4-piperidinyl]-5,6,7,8-tetrahydro-4H-[1,3]thiazolo[4,5-d]azepine]",< 1.26
20,"N#Cc1ccc(N2CCC(c3nc4c(s3)CCN(C3CCC3)CC4)CC2)cn1 [Example E20, 5-[4-(6-Cyclobutyl-5,6,7,8-tetrahydro-4H-[1,3]thiazolo[4,5-d]azepin-2-yl)-1-piperidinyl]-2-pyridinecarbonitrile]",< 0.316
21,"NC(=O)c1ccc(N2CCC(c3nc4c(s3)CCN(C3CCC3)CC4)CC2)cn1 [Example E22, 5-[4-(6-Cyclobutyl-5,6,7,8-tetrahydro-4H-[1,3]thiazolo[4,5-d]azepin-2-yl)-1-piperidinyl]-2-pyridinecarboxamide]",< 0.316
22,"CN(C)C(=O)c1ccc(N2CCC(c3nc4c(s3)CCN(C3CCC3)CC4)CC2)cn1 [Example E24, 5-[4-(6-Cyclobutyl-5,6,7,8-tetrahydro-4H-[1,3]thiazolo[4,5-d]azepin-2-yl)-1-piperidinyl]-N,N-dimethyl-2-pyridinecarboxamide]",< 1.26
23,"Cc1ncccc1C(=O)N1CCC(c2nc3c(s2)CCN(C2CCC2)CC3)CC1 [Example E25, 6-Cyclobutyl-2-{1-[(2-methyl-3-pyridinyl)carbonyl]-4-piperidinyl}-5,6,7,8-tetrahydro-4H-[1,3]thiazolo[4,5-d]azepine]",< 1.26
24,"CN1CCN(c2ccc(-c3nc4c(s3)CCN(C3CCC3)CC4)cc2)C1=O [Example E26, 1-[4-(6-Cyclobutyl-5,6,7,8-tetrahydro-4H-[1,3]thiazolo[4,5-d]azepin-2-yl)phenyl]-3-methyl-2-imidazolidinone]",< 0.316
25,"O=C1NCCN1c1ccc(-c2nc3c(s2)CCN(C2CCC2)CC3)cc1 [Example E27, 1-[4-(6-Cyclobutyl-5,6,7,8-tetrahydro-4H-[1,3]thiazolo[4,5-d]azepin-2-yl)phenyl]-2-imidazolidinone]",< 1.26
26,"CN1CCN(c2ccc(-c3nc4c(s3)CCN(C3CCCC3)CC4)cc2)C1=O [Example E28, 1-[4-(6-Cyclopentyl-5,6,7,8-tetrahydro-4H-[1,3]thiazolo[4,5-d]azepin-2-yl)phenyl]-3-methyl-2-imidazolidinone]",< 0.316
